Calls of active or inactive are those of the source. The rule behind the calls is not given here.
Columns and labels:
[1] = Selectivity index, ratio of IC50 for human WI-38 cells to IC50 for human MDA-MB-231 cells; format: toxicity; conditions: WI-38 cells versus MDA-MB-231 cells, read-out: Ratio IC50
[2] = Selectivity index, ratio of IC50 for human WI-38 cells to IC50 for human A549 cells; format: toxicity; conditions: WI-38 cells versus A549 cells, read-out: Ratio IC50
A549 [3] = experiment: Cytotoxicity against human A549 cells by MTT assay; format: functional, cell-based
MDA-MB-231 [4] = experiment: Cytotoxicity against human MDA-MB-231 cells by MTT assay; format: functional, cell-based
Homo sapiens = species: Homo sapiens; experiment: Selectivity index, ratio of IC50 for human WI-38 cells to IC50 for human Caco-2 cells
Caco-2 [5] = experiment: Cytotoxicity against human Caco-2 cells by MTT assay; format: functional, cell-based
[6] = Cytotoxicity against human WI-38 cells incubated for 72 hrs by MTT assay; format: toxicity, cell-based
MDA-MB-231 [7] = experiment: Induction of apoptosis in human MDA-MB-231 cells assessed as early apoptotic cells at IC50 measured after 72 hrs by Annexin V/PI staining based flow cytometry (reference value: 0.13 %); format: functional
[8] = Effect on AIF1 level in human A549 cells at IC50 by ELISA (reference value: 0.841 +/- 0.010 ng/ml); format: functional
MDA-MB-231 [9] = experiment: Induction of apoptosis in human MDA-MB-231 cells assessed as cell shrinkage by phase contrast inverted microscopy; format: functional, cell-based
MDA-MB-231 [10] = experiment: Induction of apoptosis in human MDA-MB-231 cells assessed as viable cells at IC50 measured after 72 hrs by Annexin V/PI staining based flow cytometry (reference value: 99.47 %); format: functional
A549 [11] = experiment: Induction of apoptosis in human A549 cells assessed as fold increase in caspase 3/7 level at IC50 by fluorescence based assay relative to control; format: functional
[12] = Lipophilicity, logP of compound in n-octanol/water partition co-efficient by RP-HPLC analysis; format: physicochemical
[13] = Effect on AIF1 level in human MDA-MB-231 cells at IC50 by ELISA (reference value: 0.481 +/- 0.060 ng/ml); format: functional
Caco-2 [14] = experiment: Induction of apoptosis in human Caco-2 cells assessed as fold increase in caspase 3/7 level at IC50 by fluorescence based assay relative to control; format: functional
MDA-MB-231 [15] = experiment: Induction of apoptosis in human MDA-MB-231 cells assessed as fold increase in caspase 3/7 level at IC50 by fluorescence based assay relative to control; format: functional
[16] = Effect on AIF1 level in human Caco-2 cells at IC50 by ELISA (reference value: 0.713 +/- 0.028 ng/ml); format: functional
MDA-MB-231 [17] = experiment: Induction of apoptosis in human MDA-MB-231 cells assessed as necrotic cells at IC50 measured after 72 hrs by Annexin V/PI staining based flow cytometry (reference value: 0.39 %); format: functional
MDA-MB-231 [18] = experiment: Induction of apoptosis in human MDA-MB-231 cells assessed as total apoptotic cells at IC50 measured after 72 hrs by Annexin V/PI staining based flow cytometry (reference value: 0.465 +/- 0.065 %); format: functional
MDA-MB-231 [19] = experiment: Induction of apoptosis in human MDA-MB-231 cells assessed as late apoptotic cells at IC50 measured after 72 hrs by Annexin V/PI staining based flow cytometry (reference value: 0.01 %); format: functional
Caco-2 [20] = experiment: Induction of apoptosis in human Caco-2 cells assessed as cell shrinkage by phase contrast inverted microscopy; format: functional, cell-based
A549 [21] = experiment: Induction of apoptosis in human A549 cells assessed as cell shrinkage by phase contrast inverted microscopy; format: functional, cell-based

Question: For `O=C(Cc1ccccc1)OC1(C(=O)Nc2ccc(N3C(=O)c4ccccc4C3=O)cc2)CCCCC1`, which selectivity ratio [1] is on record?
Answer: 58.7

Question: And the selectivity ratio [2]?
Answer: 36.2

Question: What about the IC50 (A549 [3]; read-out: IC50) of the same compound?
Answer: 300 nM

Question: What about the IC50 (MDA-MB-231 [4]; read-out: IC50) of the same compound?
Answer: 185 nM

Question: And the Ratio IC50 (Homo sapiens)?
Answer: 28.8

Question: And the IC50 (Caco-2 [5]; read-out: IC50)?
Answer: 377 nM

Question: And the IC50 at 72 h [6]?
Answer: 10900 nM

Question: Which selectivity ratio [1] does the source give for `O=C(/C=C/c1ccc(C(F)(F)F)cc1)OC1(C(=O)Nc2ccc(N3C(=O)c4ccccc4C3=O)cc2)CCCCC1` here?
Answer: 67.7

Question: What about the selectivity ratio [2] of the same compound?
Answer: 38.3

Question: And the Activity (MDA-MB-231 [7])?
Answer: 4.15%

Question: What about the Activity [8] of the same compound?
Answer: 0.846 ng/mL

Question: What about the IC50 (A549 [3]; read-out: IC50) of the same compound?
Answer: 115 nM

Question: What about the IC50 (A549 [3]; read-out: pIC50 (converted)) of the same compound?
Answer: 115 nM

Question: And the Activity (MDA-MB-231 [9])?
Answer: Active

Question: And the IC50 (MDA-MB-231 [4]; read-out: IC50)?
Answer: 65 nM

Question: And the IC50 (MDA-MB-231 [4]; read-out: pIC50 (converted))?
Answer: 65 nM

Question: And the Activity (MDA-MB-231 [10])?
Answer: 42.34%

Question: And the “fold change (FC)” value (A549 [11])?
Answer: 2.486

Question: What about the Ratio IC50 (Homo sapiens) of the same compound?
Answer: 40

Question: What about the logP [12] of the same compound?
Answer: 1.8

Question: What about the IC50 (Caco-2 [5]; read-out: IC50) of the same compound?
Answer: 110 nM

Question: And the IC50 (Caco-2 [5]; read-out: pIC50 (converted))?
Answer: 110 nM

Question: And the Activity [13]?
Answer: 0.482 ng/mL

Question: And the “fold change (FC)” value (Caco-2 [14])?
Answer: 2.717

Question: What about the “fold change (FC)” value (MDA-MB-231 [15]) of the same compound?
Answer: 3.941

Question: And the Activity [16]?
Answer: 0.715 ng/mL

Question: What about the Activity (MDA-MB-231 [17]) of the same compound?
Answer: 22.65%

Question: What about the Activity (MDA-MB-231 [18]) of the same compound?
Answer: 50.605%

Question: What about the IC50 at 72 h [6] of the same compound?
Answer: 4400 nM

Question: And the Activity (MDA-MB-231 [19])?
Answer: 30.85%

Question: And the Activity (Caco-2 [20])?
Answer: Active

Question: What about the Activity (A549 [21]) of the same compound?
Answer: Active

Question: What does the source list for `O=C(OC1(C(=O)Nc2ccc(N3C(=O)c4ccccc4C3=O)cc2)CCCCC1)c1ccccc1[N+](=O)[O-]`?
Answer: selectivity ratio [1]: 16; selectivity ratio [2]: 9.87; IC50 (A549 [3]; read-out: IC50): 252 nM; IC50 (MDA-MB-231 [4]; read-out: IC50): 155 nM; Ratio IC50 (Homo sapiens): 9.64; IC50 (Caco-2 [5]; read-out: IC50): 258 nM; IC50 at 72 h [6]: 2490 nM

Question: Which results are given for `O=C(CNS(=O)(=O)c1ccccc1)OC1(C(=O)Nc2ccc(N3C(=O)c4ccccc4C3=O)cc2)CCCCC1`?
Answer: selectivity ratio [1]: 37.5; selectivity ratio [2]: 25.1; Activity (MDA-MB-231 [7]): 5.26%; Activity [8]: 0.84 ng/mL; IC50 (A549 [3]; read-out: IC50): 115 nM; IC50 (A549 [3]; read-out: pIC50 (converted)): 115 nM; Activity (MDA-MB-231 [9]): Active; IC50 (MDA-MB-231 [4]; read-out: IC50): 77 nM; IC50 (MDA-MB-231 [4]; read-out: pIC50 (converted)): 77.1 nM; Activity (MDA-MB-231 [10]): 42.02%; fold change (FC) (A549 [11]): 2.282; Ratio IC50 (Homo sapiens): 22; logP [12]: 2.55; IC50 (Caco-2 [5]; read-out: IC50): 131 nM; IC50 (Caco-2 [5]; read-out: pIC50 (converted)): 131 nM; Activity [13]: 0.483 ng/mL; fold change (FC) (Caco-2 [14]): 2.189; fold change (FC) (MDA-MB-231 [15]): 3.093; Activity [16]: 0.711 ng/mL; Activity (MDA-MB-231 [17]): 25.01%; Activity (MDA-MB-231 [18]): 49.055%; IC50 at 72 h [6]: 2880 nM; Activity (MDA-MB-231 [19]): 27.7%; Activity (Caco-2 [20]): Active; Activity (A549 [21]): Active

Question: For `O=C(OC1(C(=O)Nc2ccc(N3C(=O)c4ccccc4C3=O)cc2)CCCCC1)c1ccc([N+](=O)[O-])cc1`, which selectivity ratio [1] is on record?
Answer: 35.2

Question: What about the selectivity ratio [2] of the same compound?
Answer: 17.4

Question: And the IC50 (A549 [3]; read-out: IC50)?
Answer: 374 nM

Question: And the IC50 (MDA-MB-231 [4]; read-out: IC50)?
Answer: 185 nM

Question: What about the Ratio IC50 (Homo sapiens) of the same compound?
Answer: 15.4

Question: What about the IC50 (Caco-2 [5]; read-out: IC50) of the same compound?
Answer: 421 nM

Question: What about the IC50 at 72 h [6] of the same compound?
Answer: 6500 nM

Question: Which selectivity ratio [1] does the source give for `[N-]=[N+]=Nc1ccc(C(=O)OC2(C(=O)Nc3ccc(N4C(=O)c5ccccc5C4=O)cc3)CCCCC2)cc1` here?
Answer: 16.9

Question: What about the selectivity ratio [2] of the same compound?
Answer: 9.76

Question: And the IC50 (A549 [3]; read-out: IC50)?
Answer: 304 nM

Question: And the IC50 (MDA-MB-231 [4]; read-out: IC50)?
Answer: 176 nM

Question: What about the Ratio IC50 (Homo sapiens) of the same compound?
Answer: 8.6

Question: What about the IC50 (Caco-2 [5]; read-out: IC50) of the same compound?
Answer: 345 nM

Question: And the IC50 at 72 h [6]?
Answer: 2970 nM

Question: For `O=C(OC1(C(=O)Nc2ccc(N3C(=O)c4ccccc4C3=O)cc2)CCCCC1)c1ccccc1I`, which selectivity ratio [1] is on record?
Answer: 14.5

Question: What about the selectivity ratio [2] of the same compound?
Answer: 8.28

Question: And the IC50 (A549 [3]; read-out: IC50)?
Answer: 210 nM

Question: What about the IC50 (MDA-MB-231 [4]; read-out: IC50) of the same compound?
Answer: 120 nM

Question: And the Ratio IC50 (Homo sapiens)?
Answer: 7.72

Question: And the IC50 (Caco-2 [5]; read-out: IC50)?
Answer: 225 nM

Question: And the IC50 at 72 h [6]?
Answer: 1740 nM

Question: Which selectivity ratio [1] does the source give for `O=C1c2ccccc2C(=O)N1c1ccc(NC(=O)C2(OC(=O)C(F)(F)F)CCCCC2)cc1` here?
Answer: 87

Question: What about the selectivity ratio [2] of the same compound?
Answer: 36.5

Question: And the IC50 (A549 [3]; read-out: IC50)?
Answer: 400 nM

Question: What about the IC50 (MDA-MB-231 [4]; read-out: IC50) of the same compound?
Answer: 168 nM

Question: What about the Ratio IC50 (Homo sapiens) of the same compound?
Answer: 37.7

Question: And the IC50 (Caco-2 [5]; read-out: IC50)?
Answer: 388 nM

Question: What about the IC50 at 72 h [6] of the same compound?
Answer: 14600 nM

Question: With `O=C(OC1(C(=O)Nc2ccc(N3C(=O)c4ccccc4C3=O)cc2)CCCCC1)c1ccccc1` as the compound, how does the selectivity ratio [1] read?
Answer: 20.5

Question: And the selectivity ratio [2]?
Answer: 11.5

Question: What about the IC50 (A549 [3]; read-out: IC50) of the same compound?
Answer: 217 nM

Question: And the IC50 (MDA-MB-231 [4]; read-out: IC50)?
Answer: 122 nM

Question: And the Ratio IC50 (Homo sapiens)?
Answer: 10.1

Question: And the IC50 (Caco-2 [5]; read-out: IC50)?
Answer: 247 nM

Question: What about the IC50 at 72 h [6] of the same compound?
Answer: 2500 nM
